# Data taken from patent US11357813B2, “Composition comprising tannins” (ABOCA S.P.A SOCIETÀ AGRICOLA, priority 2015, dated 2022).
# Tests used:
# [1] = test system: white male mouse oropharynx sections (oral mucosa); assay: FeCl3 staining of oropharynx sections: interaction of tannin-containing extracts and compositions with the oral mucosa; assay type: binding; conditions: sections treated 1 hour with 10%, 5%, 1% and 0.1% in distilled water (w/v); 2% FeCl3 for 15 minutes; optical microscope 40x
# Procedure: 1. Assessment of interaction among plant extracts containing tannins, plant extracts not containing tannins and oral mucosa.
# 2 μm-thick sections of untreated white male mouse oropharynx, fixed in formalin with 10% phosphate buffer, were used.
# Separate deparaffinized and hydrated sections were treated for 1 hour, respectively with
# 1—10%, 5%, 1% and 0.1% tannic acid in distilled water (weight/volume)
# 2—10%, 5%, 1% and 0.1% Agrimonia eupatoria extract in distilled water (w/v), equal to, respectively, 100 mg/ml, 50 mg/ml, 10 mg/ml and 1 mg/ml of Agrimonia eupatoria
# 3—10%, 5%, 1% and 0.1% Hamamelis Virginiana extract in distilled water (w/v), equal to, respectively, 100 mg/ml, 50 mg/ml, 10 mg/ml and 1 mg/ml of Hamamelis Virginiana
# 4—10%, 5%, 1% and 0.1% Aloe vera extract in distilled water (w/v)
# 5—10%, 5%, 1% and 0.1% Commiphora myrrha in distilled water (w/v)
# 6—composition of the invention in the form of tablets (composition example B) in a 10%, 20% 30% and 50% solution, equal to, respectively, 6.67 mg/ml, 13.34 mg/ml, 20.01 mg/ml and 33.35 mg/ml of Agrimonia eupatoria
# 7—composition of the invention in the form of spray (composition example C) in a 10%, 20%, 50% and 100% solution, equal to, respectively, 3.3 mg/ml, 6.6 mg/ml, 16.5 mg/ml and 33 mg/ml of Agrimonia eupatoria, […]
# The sections were analyzed at the optical microscope (40× magnification) and photographed with a digital camera.
# laboratory animals = conditions: cited from earlier work
compound,measurement,setting,value
"O=C(OC[C@H]1O[C@@H](OC(=O)c2cc(O)c(O)c(OC(=O)c3cc(O)c(O)c(O)c3)c2)[C@H](OC(=O)c2cc(O)c(O)c(OC(=O)c3cc(O)c(O)c(O)c3)c2)[C@@H](OC(=O)c2cc(O)c(O)c(OC(=O)c3cc(O)c(O)c(O)c3)c2)[C@@H]1OC(=O)c1cc(O)c(O)c(OC(=O)c2cc(O)c(O)c(O)c2)c1)c1cc(O)c(O)c(OC(=O)c2cc(O)c(O)c(O)c2)c1 [Sample 1, tannic acid]",FeCl3 staining of oropharynx sections,[1],Staining intensity is dependent on concentration
same,tumour finding after subcutaneous administration,laboratory animals,onset of hepatic tumours
